From PubChem BioAssay (NCI)
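Five concentrations, 48 hours, 96-well plates. The concentration for 50% growth inhibition is given as GI50. The concentration for full growth arrest is given as TGI.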

Assays:
Test in all cases: DTP human tumour cell line panel, 48 h
NCI-H522 lung = system: NCI-H522 lung
SW-620 colon = system: SW-620 colon
T-47D breast = system: T-47D breast
OVCAR-3 ovarian = system: OVCAR-3 ovarian
DU-145 prostate = system: DU-145 prostate
MOLT-4 leukemia = system: MOLT-4 leukemia
SNB-19 CNS = system: SNB-19 CNS
SF-295 CNS = system: SF-295 CNS
K-562 leukemia = system: K-562 leukemia
MDA-MB-231 breast = system: MDA-MB-231 breast
SK-MEL-5 melanoma = system: SK-MEL-5 melanoma
NCI-H23 lung = system: NCI-H23 lung
TK-10 renal = system: TK-10 renal
COLO 205 colon = system: COLO 205 colon
SK-OV-3 ovarian = system: SK-OV-3 ovarian
MALME-3M melanoma = system: MALME-3M melanoma
NCI-H460 lung = system: NCI-H460 lung
SF-539 CNS = system: SF-539 CNS
NCI/ADR-RES ovarian = system: NCI/ADR-RES ovarian
M14 melanoma = system: M14 melanoma
SK-MEL-28 melanoma = system: SK-MEL-28 melanoma
RXF 393 renal = system: RXF 393 renal
UACC-62 melanoma = system: UACC-62 melanoma
HS 578T breast = system: HS 578T breast
ACHN renal = system: ACHN renal
MDA-MB-435 = system: MDA-MB-435
RPMI-8226 leukemia = system: RPMI-8226 leukemia
SR leukemia = system: SR leukemia
PC-3 prostate = system: PC-3 prostate
SN12C renal = system: SN12C renal
OVCAR-5 ovarian = system: OVCAR-5 ovarian
CAKI-1 renal = system: CAKI-1 renal
SF-268 CNS = system: SF-268 CNS
EKVX NSCLC = system: EKVX NSCLC
HT29 colon = system: HT29 colon
IGROV1 ovarian = system: IGROV1 ovarian
U251 CNS = system: U251 CNS
SK-MEL-2 melanoma = system: SK-MEL-2 melanoma
A549 NSCLC = system: A549 NSCLC
HCC-2998 colon = system: HCC-2998 colon
OVCAR-8 ovarian = system: OVCAR-8 ovarian
HCT-116 colon = system: HCT-116 colon
HOP-62 NSCLC = system: HOP-62 NSCLC
HCT-15 colon = system: HCT-15 colon
BT-549 breast = system: BT-549 breast
KM12 colon = system: KM12 colon
NCI-H226 lung = system: NCI-H226 lung
UO-31 renal = system: UO-31 renal
786-0 renal = system: 786-0 renal
MCF7 breast = system: MCF7 breast
UACC-257 melanoma = system: UACC-257 melanoma
LOX IMVI melanoma = system: LOX IMVI melanoma
OVCAR-4 ovarian = system: OVCAR-4 ovarian
HL-60(TB) leukemia = system: HL-60(TB) leukemia
HOP-92 NSCLC = system: HOP-92 NSCLC

O=C(O)C1Cc2ccccc2OC1=O (stereo not drawn)
TGI (NCI-H522 lung): > 100 µM | TGI (SW-620 colon): > 100 µM | TGI (T-47D breast): > 100 µM | TGI (OVCAR-3 ovarian): > 100 µM | TGI (DU-145 prostate): > 100 µM | TGI (MOLT-4 leukemia): > 100 µM | TGI (SNB-19 CNS): > 100 µM | TGI (SF-295 CNS): > 100 µM | TGI (K-562 leukemia): > 100 µM | TGI (MDA-MB-231 breast): > 100 µM | TGI (SK-MEL-5 melanoma): > 100 µM | TGI (NCI-H23 lung): > 100 µM | TGI (TK-10 renal): > 100 µM | TGI (COLO 205 colon): > 100 µM | TGI (SK-OV-3 ovarian): > 100 µM | TGI (MALME-3M melanoma): > 100 µM | TGI (NCI-H460 lung): > 100 µM | TGI (SF-539 CNS): > 100 µM | TGI (NCI/ADR-RES ovarian): > 100 µM | TGI (M14 melanoma): > 100 µM | TGI (SK-MEL-28 melanoma): > 100 µM | TGI (RXF 393 renal): > 100 µM | TGI (UACC-62 melanoma): > 100 µM | TGI (HS 578T breast): > 100 µM | TGI (ACHN renal): > 100 µM | TGI (MDA-MB-435): > 100 µM | TGI (RPMI-8226 leukemia): > 100 µM | TGI (SR leukemia): > 100 µM | TGI (PC-3 prostate): > 100 µM | TGI (SN12C renal): > 100 µM | TGI (OVCAR-5 ovarian): > 100 µM | TGI (CAKI-1 renal): > 100 µM | TGI (SF-268 CNS): > 100 µM | TGI (EKVX NSCLC): > 100 µM | TGI (HT29 colon): > 100 µM | TGI (IGROV1 ovarian): > 100 µM | TGI (U251 CNS): > 100 µM | TGI (SK-MEL-2 melanoma): > 100 µM | TGI (A549 NSCLC): > 100 µM | TGI (HCC-2998 colon): > 100 µM | TGI (OVCAR-8 ovarian): > 100 µM | TGI (HCT-116 colon): > 100 µM | TGI (HOP-62 NSCLC): > 100 µM | TGI (HCT-15 colon): > 100 µM | TGI (BT-549 breast): > 100 µM | TGI (KM12 colon): > 100 µM | TGI (NCI-H226 lung): > 100 µM | TGI (UO-31 renal): > 100 µM | TGI (786-0 renal): > 100 µM | TGI (MCF7 breast): > 100 µM | TGI (UACC-257 melanoma): > 100 µM

C=C(CN(CCN1CCOCC1)CC(=C)c1ccc(C(=O)Nc2ccccc2N)cc1)c1ccc(C(=O)Nc2ccccc2N)cc1
GI50 (NCI-H522 lung): 2.62 µM | TGI (NCI-H522 lung): 28.9 µM | GI50 (SW-620 colon): 8.71 µM | TGI (SW-620 colon): 38.5 µM | GI50 (T-47D breast): 8.33 µM | TGI (T-47D breast): 47.6 µM | GI50 (OVCAR-3 ovarian): 10.1 µM | TGI (OVCAR-3 ovarian): 39.8 µM | GI50 (DU-145 prostate): 6.88 µM | TGI (DU-145 prostate): 15.7 µM | GI50 (SNB-19 CNS): 9.18 µM | TGI (SNB-19 CNS): 33.4 µM | GI50 (SF-295 CNS): 8.46 µM | TGI (SF-295 CNS): 19.9 µM | GI50 (K-562 leukemia): 28.1 µM | TGI (K-562 leukemia): > 50 µM | GI50 (MDA-MB-231 breast): 3.05 µM | TGI (MDA-MB-231 breast): 11.2 µM | GI50 (SK-MEL-5 melanoma): 8.38 µM | TGI (SK-MEL-5 melanoma): 16.7 µM | GI50 (NCI-H23 lung): 2.49 µM | TGI (NCI-H23 lung): 9.11 µM | GI50 (TK-10 renal): 4.44 µM | TGI (TK-10 renal): 12 µM | GI50 (COLO 205 colon): 8.21 µM | TGI (COLO 205 colon): 20.2 µM | GI50 (SK-OV-3 ovarian): 8.26 µM | TGI (SK-OV-3 ovarian): 17.2 µM | GI50 (NCI-H460 lung): 8.72 µM | TGI (NCI-H460 lung): > 50 µM | GI50 (SF-539 CNS): 5.31 µM | TGI (SF-539 CNS): 16.1 µM | GI50 (NCI/ADR-RES ovarian): 1.31 µM | TGI (NCI/ADR-RES ovarian): 4.92 µM | GI50 (M14 melanoma): 15.8 µM | TGI (M14 melanoma): > 50 µM | GI50 (SK-MEL-28 melanoma): 6.86 µM | TGI (SK-MEL-28 melanoma): 16.2 µM | GI50 (RXF 393 renal): 11.9 µM | TGI (RXF 393 renal): 23.6 µM | GI50 (LOX IMVI melanoma): 1.07 µM | TGI (LOX IMVI melanoma): 6.47 µM | GI50 (UACC-62 melanoma): 2.48 µM | TGI (UACC-62 melanoma): 10.6 µM | GI50 (HS 578T breast): 5.55 µM | TGI (HS 578T breast): 42.8 µM | GI50 (ACHN renal): 6.04 µM | TGI (ACHN renal): 13.3 µM | GI50 (MDA-MB-435): 8.67 µM | TGI (MDA-MB-435): 28.5 µM | GI50 (RPMI-8226 leukemia): 2.68 µM | TGI (RPMI-8226 leukemia): > 50 µM | GI50 (SR leukemia): 11.7 µM | TGI (SR leukemia): > 50 µM | GI50 (PC-3 prostate): 15 µM | TGI (PC-3 prostate): > 50 µM | GI50 (SN12C renal): 7.43 µM | TGI (SN12C renal): 21.2 µM | GI50 (OVCAR-5 ovarian): 7.62 µM | TGI (OVCAR-5 ovarian): 15.2 µM | GI50 (CAKI-1 renal): 9.45 µM | TGI (CAKI-1 renal): 34.6 µM | GI50 (SF-268 CNS): 8.17 µM | TGI (SF-268 CNS): 25 µM | GI50 (EKVX NSCLC): 14 µM | TGI (EKVX NSCLC): > 50 µM | GI50 (OVCAR-4 ovarian): 10.5 µM | TGI (OVCAR-4 ovarian): > 50 µM | GI50 (IGROV1 ovarian): 7.37 µM | TGI (IGROV1 ovarian): 29.1 µM | GI50 (HL-60(TB) leukemia): 13 µM | TGI (HL-60(TB) leukemia): > 50 µM | GI50 (U251 CNS): 5.78 µM | TGI (U251 CNS): 12.4 µM | GI50 (SK-MEL-2 melanoma): 11.1 µM | TGI (SK-MEL-2 melanoma): > 50 µM | GI50 (HOP-92 NSCLC): 8.35 µM | TGI (HOP-92 NSCLC): 33.8 µM | GI50 (A549 NSCLC): 9.38 µM | TGI (A549 NSCLC): 24.9 µM | GI50 (HCC-2998 colon): 0.874 µM | TGI (HCC-2998 colon): 3.05 µM | GI50 (OVCAR-8 ovarian): 1.79 µM | TGI (OVCAR-8 ovarian): 29.5 µM | GI50 (HCT-116 colon): 7.68 µM | TGI (HCT-116 colon): 15.3 µM | GI50 (HOP-62 NSCLC): 9.94 µM | TGI (HOP-62 NSCLC): > 50 µM | GI50 (HCT-15 colon): 10.5 µM | TGI (HCT-15 colon): 43.9 µM | GI50 (BT-549 breast): 8.56 µM | TGI (BT-549 breast): 21.2 µM | GI50 (KM12 colon): 9.12 µM | TGI (KM12 colon): 19.5 µM | GI50 (UO-31 renal): 5.2 µM | TGI (UO-31 renal): 11.4 µM | GI50 (786-0 renal): 1.07 µM | TGI (786-0 renal): 6.65 µM | GI50 (MCF7 breast): 11 µM | TGI (MCF7 breast): > 50 µM | GI50 (UACC-257 melanoma): 3.68 µM | TGI (UACC-257 melanoma): 13.5 µM
